These results are taken from publication PMC3492951 (Journal of the American Chemical Society, 2011).

Series [1] has as its system SAH hydrolase. Conditions: in cells / in vivo; cited from earlier work.
For series [2], the target named is T1, CARM1 (also known as PRMT4) (Homo sapiens, UniProt Q86X55).
T1 sequence (Q86X55 1-608): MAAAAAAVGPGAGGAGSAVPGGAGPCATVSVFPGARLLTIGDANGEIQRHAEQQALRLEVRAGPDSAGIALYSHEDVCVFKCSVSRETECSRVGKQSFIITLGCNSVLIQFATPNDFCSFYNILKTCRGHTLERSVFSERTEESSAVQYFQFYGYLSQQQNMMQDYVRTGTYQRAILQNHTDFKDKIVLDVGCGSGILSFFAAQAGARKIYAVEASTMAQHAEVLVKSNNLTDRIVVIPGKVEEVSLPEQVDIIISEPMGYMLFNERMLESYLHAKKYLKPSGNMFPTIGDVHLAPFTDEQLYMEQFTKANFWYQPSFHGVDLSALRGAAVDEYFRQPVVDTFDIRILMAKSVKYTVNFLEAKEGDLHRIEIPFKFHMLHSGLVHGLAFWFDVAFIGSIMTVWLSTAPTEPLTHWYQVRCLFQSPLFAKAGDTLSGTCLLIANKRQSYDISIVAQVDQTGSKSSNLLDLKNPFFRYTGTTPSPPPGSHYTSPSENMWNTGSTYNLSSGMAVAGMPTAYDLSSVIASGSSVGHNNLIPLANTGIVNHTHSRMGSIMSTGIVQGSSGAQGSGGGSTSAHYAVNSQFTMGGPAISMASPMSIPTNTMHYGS
The series is described as follows: CARM1 enzyme inhibition. Conditions: read-out: Ki CARM1; competitive inhibitors. The class given is biochemical.

The target in series [3] is PRMT1 (Homo sapiens, UniProt Q99873). The series is described as follows: PRMT1 enzyme inhibition. Conditions: read-out: Ki PRMT1; competitive inhibitors. The format is biochemical.
In series [4] the target is T2, G9a (Homo sapiens, UniProt Q96KQ7).
T2 sequence (Q96KQ7 1-1210): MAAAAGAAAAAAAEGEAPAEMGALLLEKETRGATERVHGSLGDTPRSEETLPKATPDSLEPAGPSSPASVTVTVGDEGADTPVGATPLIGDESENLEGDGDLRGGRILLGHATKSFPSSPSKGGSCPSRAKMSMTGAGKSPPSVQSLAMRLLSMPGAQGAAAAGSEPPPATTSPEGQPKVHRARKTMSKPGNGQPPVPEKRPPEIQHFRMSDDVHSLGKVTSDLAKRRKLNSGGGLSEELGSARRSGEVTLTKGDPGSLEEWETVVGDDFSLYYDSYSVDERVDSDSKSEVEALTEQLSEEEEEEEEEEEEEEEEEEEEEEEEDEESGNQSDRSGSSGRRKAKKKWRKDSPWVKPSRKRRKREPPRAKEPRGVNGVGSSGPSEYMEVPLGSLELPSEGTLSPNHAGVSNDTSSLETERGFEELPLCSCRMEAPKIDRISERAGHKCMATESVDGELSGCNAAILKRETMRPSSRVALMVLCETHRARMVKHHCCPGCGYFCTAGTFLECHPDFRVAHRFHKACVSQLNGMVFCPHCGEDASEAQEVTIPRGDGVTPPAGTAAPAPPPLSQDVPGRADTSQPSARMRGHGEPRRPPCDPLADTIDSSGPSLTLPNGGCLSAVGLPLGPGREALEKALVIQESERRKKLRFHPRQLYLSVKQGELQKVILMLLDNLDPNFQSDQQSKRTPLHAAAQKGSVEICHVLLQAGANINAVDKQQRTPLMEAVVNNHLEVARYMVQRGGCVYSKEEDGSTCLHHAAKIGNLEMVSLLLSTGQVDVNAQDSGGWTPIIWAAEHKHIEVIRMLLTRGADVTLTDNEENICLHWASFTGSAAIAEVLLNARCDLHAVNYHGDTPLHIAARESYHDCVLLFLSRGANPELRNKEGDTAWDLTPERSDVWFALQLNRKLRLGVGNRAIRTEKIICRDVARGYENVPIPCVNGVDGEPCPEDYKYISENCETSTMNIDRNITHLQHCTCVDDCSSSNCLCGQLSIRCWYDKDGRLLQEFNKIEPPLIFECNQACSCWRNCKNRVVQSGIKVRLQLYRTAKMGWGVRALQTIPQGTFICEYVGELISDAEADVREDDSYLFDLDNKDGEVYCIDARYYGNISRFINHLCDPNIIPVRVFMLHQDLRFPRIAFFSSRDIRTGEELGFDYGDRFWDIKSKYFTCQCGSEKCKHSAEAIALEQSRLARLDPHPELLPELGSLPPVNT
Nature of the series: G9a enzyme inhibition. The format is biochemical.

pKi: −log10 of the molar value. A value given as a limit tells only on which side of the number the result lay.

Sequence of PRMT1 (Q99873 whole entry, species assumed): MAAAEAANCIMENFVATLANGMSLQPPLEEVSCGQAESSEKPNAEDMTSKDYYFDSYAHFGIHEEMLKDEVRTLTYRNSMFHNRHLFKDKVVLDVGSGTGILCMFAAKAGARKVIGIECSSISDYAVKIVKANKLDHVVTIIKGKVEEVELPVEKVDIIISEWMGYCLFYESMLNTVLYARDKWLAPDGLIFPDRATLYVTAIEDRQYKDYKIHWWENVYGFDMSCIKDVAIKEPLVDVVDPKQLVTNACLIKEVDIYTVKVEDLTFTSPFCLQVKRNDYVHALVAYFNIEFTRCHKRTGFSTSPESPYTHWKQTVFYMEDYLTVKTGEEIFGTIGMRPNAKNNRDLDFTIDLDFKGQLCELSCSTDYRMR

As for `Nc1ncnc2c1ncn2[C@@H]1O[C@H](CSCC[C@H](N)C(=O)O)[C@@H](O)[C@H]1O` [SAH, S-(5'-adenosyl)-L-homocysteine], in series [1], the “degradation to adenosine and homocysteine by SAH hydrolase” value is “quickly degraded”.
For orientation: pKi means the negative decadic logarithm of the Ki, by convention in mol/L. For the compound `N[C@@H](CCSC[C@H]1O[C@@H](n2cnc3c(NCc4ccccc4)ncnc32)[C@H](O)[C@@H]1O)C(=O)O` [Compound 2, N6-benzyl-SAH], the pKi was 4.74 in series [2]; 4.67 in series [3]; less than 4.00 in series [4] (read-out: Ki G9a, competitive inhibitors). Further, in series [4], the “activity on G9a” value was “inactive”.
